This is an account of results in ChEMBL document CHEMBL1158212, “Squamotacin: an annonaceous acetogenin with cytotoxic selectivity for the human prostate tumor cell line (PC-3)” (J Nat Prod, 1996).

One data set has as its system A549. The data set can be described thus: Cytotoxicity against human A549 cells. Format: functional. Particulars: for EC50: Homo sapiens, A549, read-out: ED50 (the source's name).
The next data set has as its system A498. The data set can be described thus: Cytotoxicity against human A498 cells. Format: functional. The settings on record: for EC50: Homo sapiens, A498, read-out: ED50 (the source's name).
The test system of another data set is MCF7. Kind of data set: Cytotoxicity against human MCF7 cells. Type of data set: functional. The settings on record: read-out: ED50 (the source's name).
Another data set concerns HT-29. The data set can be described thus: Cytotoxicity against human HT29 cells. Type of data set: functional. The settings on record: read-out: ED50 (the source's name).
A short description of data set [1]: (§1) Toxicity in Artemia salina. Type of data set: organism-based. Particulars: in vivo.
Data set [2] is described as follows: Cytotoxicity against human PC3 cells. Particulars: read-out: ED50 (the source's name). Format: cell-based, PC-3.
The next data set concerns MIA PaCa-2. Kind of data set: Cytotoxicity against human MIAPaCa2 cells. Type of data set: functional. The settings on record: for EC50: Homo sapiens, MIA PaCa-2, read-out: ED50 (the source's name).
For a further data set, the system named is Artemia salina. Described as §1. Particulars: in vivo. Type of data set: organism-based.

Converted amounts (≈) assume the structure as drawn.

With `CCCCCCCCCC[C@@H](O)[C@@H]1CC[C@@H]([C@@H]2CC[C@@H]([C@H](O)CCCCCCCCCC(O)CC3=CC(C)OC3=O)O2)O1` (stereo not given in full) [BULLATACIN], the ED50 in the data set with A549 worked out at 2.44 ×10⁻⁶ ug/ml; in the data set on A498, 4.85 ×10⁻⁵ ug/ml. Also, the EC50 with MCF7 is 696 ng/mL (≈ 1140 nM); in the data set with HT-29, more than 1000 ng/mL.

`CCCCCCCCCC[C@H](O)[C@H]1CC[C@H]([C@H]2CC[C@H]([C@H](O)CCCCCCCCCC[C@@H](O)CC3=C[C@H](C)OC3=O)O2)O1` [BULLATACIN] registered an LC50 in data set [1] of 1.59 ng/mL (≈ 2.55 nM). In addition, the CC50 in data set [2] stood at 1e-06 ng/mL (≈ 1.61e-06 nM).

As for `COc1cccc2c1C(=O)c1c(O)c3c(c(O)c1C2=O)C[C@@](O)(C(=O)CO)C[C@@H]3O[C@H]1C[C@H](N)[C@H](O)[C@H](C)O1` [DOXORUBICIN], the EC50 in the data set with MIA PaCa-2 worked out at 3.17 ng/mL (≈ 5.83 nM); in the data set on A549 it was 28.4 ng/mL (≈ 52.3 nM); with A498, 24.9 ng/mL (≈ 45.8 nM); with MCF7, 347 ng/mL (≈ 638 nM); in the data set with HT-29 it was 41.6 ng/mL (≈ 76.5 nM). For the same compound, the LC50 in data set [1] worked out at 257 ng/mL (≈ 473 nM). The CC50 in data set [2] turned out to be 342 ng/mL (≈ 629 nM).

Consider `CCCCCCCCCC[C@H](O)[C@H]1CC[C@H]([C@H]2CC[C@H]([C@H](O)CCCCCCCC[C@@H](O)CC3=C[C@H](C)OC3=O)O2)O1` [MOLVIZARIN], for which the EC50 is 7.66 ng/mL (≈ 12.9 nM) in the data set on MIA PaCa-2; 63 ng/mL (≈ 106 nM) with A549; 709 ng/mL (≈ 1190 nM) in the data set with A498; more than 1000 ng/mL in the data set with MCF7; 7.32 ng/mL (≈ 12.3 nM) in the data set on HT-29. In the data set on Artemia salina, this compound displayed an LC50 of 5.26 ×10⁻² ug/ml.

In turn, `CCCCCCCCCCCC[C@H](O)[C@H]1CC[C@H]([C@H]2CC[C@H]([C@H](O)CCCCCCCC[C@@H](O)CC3=C[C@H](C)OC3=O)O2)O1` [SQUAMOTACIN] had an ED50 with MIA PaCa-2 of 1.33 ×10⁻⁴ ug/ml. In addition, the EC50 in the data set on A549 was 27.7 ng/mL (≈ 44.5 nM); in the data set on A498, more than 1000 ng/mL; in the data set with MCF7, more than 1000 ng/mL; in the data set with HT-29, 1 ng/mL (≈ 1.61 nM). The LC50 in data set [1] was determined as 6.8 ng/mL (≈ 10.9 nM).
